Reference: patent publication US20070167492A1, “Molluscicidal agents” (priority 2003, published 2007)

What was measured:
[1] = system: Winter wheat (Kampa race) seeds; assay: Seed germination test of treated winter wheat seeds (rolled in paper); type: in vivo; conditions: 3x50 seeds, 6 days at 22° C.
Method: (§1) Winter wheat (Kampa race; thousand grain weight of 51 grams) was used in an experiment to test the efficacy of the compositions of the present inventions in relation to known molluscicidal compounds. The seeds were disinfected for soil and germ moulds with 2 ml of Beret Gold (comprising 25 g/l of the fungicide fludioxonil) per kg of seed.
(§2) Sepiret® was added to all dry disinfections, and is the coating that was added to all agents of which the formulation was not suitable for coating.
Table 2 provides an overview of the amounts of diluent water and Sepiret® used for treating the wheat seeds. Table 2 further provides the quality of the coating and the percentages of germinating seeds in a seed germination test. In this test, the percentage of germination of 3×50 seeds, rolled in paper, was determined after 6 days at 22° C. (continuously) and a 16 hours light regime.

[2] = system: Deroceras reticulatum (grey field slug); assay: Example 1: pot test, treated winter wheat seed with 5 adult slugs per pot, 14 days; type: in vivo; conditions: for differences in the number of damaged seeds / protection / slug controlling effect (conclusion): Example 1, dosages tested; for protection / slug controlling effect (conclusion): winter wheat seed treatment
Method: as §1, §2
The seeds were sown in earthenware pots with an internal diameter of 20 cm and a height of 18 cm, filled with 7 cm of potting soil (Trio BV, Weesp, The Netherlands) and with a top 2 cm of white quartz sand. A total of 40 seeds was placed in each pot, in a pattern of concentric circles on top of the quartz sand, the germ facing upwards. To each pot a total of 5 adult specimens of the test slug Deroceras reticulatum (grey field slug) were added. The pots were incubated at ±15° C. with a relative humidity of ±90% and light regime of ±12 hours light/12 hours dark, without artificial lighting. The pots were not irrigated overhead. In total, 4 parallel tests were performed for each test.
Following the addition of the slugs, the number of damaged seeds was counted after 2, 3, 7, 10 and 14 days. The number of plants present (germinated and not eaten or damaged by the slugs) was determined 3, 7, 10 and 14 days after the start of the test. […] The number of dead slugs was counted 2, 3, 7, 10 and 14 days after the start of the test (but not removed). Finally, on days 3, 7, 10 and 14 after the start of the test, the number fecal pellets was counted.
The data were statistically analysed by using F-tests (α=0.05) and pair-wise Student-tests.

[3] = 2 ml formulated per kg seed, 2 days after sowing
[4] = 2 ml formulated per kg seed, 3 days after sowing
[5] = 2 ml formulated per kg seed, 7 days after sowing
[6] = 2 ml formulated per kg seed, 10 days after sowing
[7] = 2 ml formulated per kg seed, 14 days after sowing
[8] = 10 ml formulated per kg seed, 2 days after sowing
[9] = 10 ml formulated per kg seed, 3 days after sowing
[10] = 10 ml formulated per kg seed, 7 days after sowing
[11] = 10 ml formulated per kg seed, 10 days after sowing
[12] = 10 ml formulated per kg seed, 14 days after sowing
[13] = 4 ml formulated per kg seed, 2 days after sowing
[14] = 4 ml formulated per kg seed, 3 days after sowing
[15] = 4 ml formulated per kg seed, 7 days after sowing
[16] = 4 ml formulated per kg seed, 10 days after sowing
[17] = 4 ml formulated per kg seed, 14 days after sowing
[18] = 8 ml formulated per kg seed, 2 days after sowing
[19] = 8 ml formulated per kg seed, 3 days after sowing
[20] = 8 ml formulated per kg seed, 7 days after sowing
[21] = 8 ml formulated per kg seed, 10 days after sowing
[22] = 8 ml formulated per kg seed, 14 days after sowing

## CC=C(C)C(=O)OC1CC(OC(C)=O)C2(C(=O)OC)COC3C2C12COC(O)(C(=O)OC)C2C(C)(C12OC1(C)C1CC2OC2OC=CC21O)C3O (stereo not shown) [azadirachtine]
[1]; 2 ml formulated per kg seed
  Percentage germinated: 90%
[1]; 10 ml formulated per kg seed
  Percentage germinated: 65%
[2]; 2 ml formulated per kg seed
  number of utilizable plants after 14 days: 0.8
  percentage of damaged seeds after 14 days: 95%
[2]; [3]
  Mean number of damaged seeds per pot: 5.8
  Mean number of dead slugs per pot: 0.3
[2]; [4]
  Mean number fecal pellets per pot: 62
  Mean number of damaged seeds per pot: 20.8
  Mean number of dead slugs per pot: 0.3
  Mean number of plants present per pot: 5.3
[2]; [5]
  Mean number fecal pellets per pot: 106
  Mean number of damaged seeds per pot: 37.0
  Mean number of dead slugs per pot: 0.3
  Mean number of plants present per pot: 1.0
[2]; [6]
  Mean number fecal pellets per pot: 139
  Mean number of damaged seeds per pot: 37.0
  Mean number of dead slugs per pot: 0.3
  Mean number of plants present per pot: 1.3
[2]; [7]
  Mean number fecal pellets per pot: 156
  Mean number of damaged seeds per pot: 38.0
  Mean number of dead slugs per pot: 0.5
  Mean number of plants present per pot: 0.8
[2]; 10 ml formulated per kg seed
  number of utilizable plants after 14 days: 2.3
  percentage of damaged seeds after 14 days: 86%
[2]; [8]
  Mean number of damaged seeds per pot: 4.0
  Mean number of dead slugs per pot: 0
[2]; [9]
  Mean number fecal pellets per pot: 32
  Mean number of damaged seeds per pot: 13.0
  Mean number of dead slugs per pot: 0
  Mean number of plants present per pot: 4.8
[2]; [10]
  Mean number fecal pellets per pot: 93
  Mean number of damaged seeds per pot: 30.5
  Mean number of dead slugs per pot: 0
  Mean number of plants present per pot: 2.8
[2]; [11]
  Mean number fecal pellets per pot: 130
  Mean number of damaged seeds per pot: 32.5
  Mean number of dead slugs per pot: 0.3
  Mean number of plants present per pot: 3.3
[2]; [12]
  Mean number fecal pellets per pot: 138
  Mean number of damaged seeds per pot: 34.5
  Mean number of dead slugs per pot: 0.3
  Mean number of plants present per pot: 3.8
[2]
  differences in the number of damaged seeds: did not result in significant differences
  protection / slug controlling effect (conclusion): no sufficient protection to the plants

## COc1cc(C=CC(=O)O)cc(OC)c1 [dimethoxycinnamic acid, 3,5-dimethoxycinnamic acid]
[1]; 2 ml formulated per kg seed
  Percentage germinated: 75%
[1]; 4 ml formulated per kg seed
  Percentage germinated: 75%
[1]; 8 ml formulated per kg seed
  Percentage germinated: 38%
[2]; 2 ml formulated per kg seed
  number of utilizable plants after 14 days: 0
  percentage of damaged seeds after 14 days: 99%
[2]; [3]
  Mean number of damaged seeds per pot: 5.0
  Mean number of dead slugs per pot: 0
[2]; [4]
  Mean number fecal pellets per pot: 66
  Mean number of damaged seeds per pot: 17.5
  Mean number of dead slugs per pot: 0
  Mean number of plants present per pot: 3.5
[2]; [5]
  Mean number fecal pellets per pot: 115
  Mean number of damaged seeds per pot: 39.5
  Mean number of dead slugs per pot: 0.3
  Mean number of plants present per pot: 0
[2]; [6]
  Mean number fecal pellets per pot: 133
  Mean number of damaged seeds per pot: 39.3
  Mean number of dead slugs per pot: 0.3
  Mean number of plants present per pot: 0
[2]; [7]
  Mean number fecal pellets per pot: 141
  Mean number of damaged seeds per pot: 39.8
  Mean number of dead slugs per pot: 0.8
  Mean number of plants present per pot: 0
[2]; 4 ml formulated per kg seed
  number of utilizable plants after 14 days: 1.5
  percentage of damaged seeds after 14 days: 87%
[2]; [13]
  Mean number of damaged seeds per pot: 4.3
  Mean number of dead slugs per pot: 0
[2]; [14]
  Mean number fecal pellets per pot: 46
  Mean number of damaged seeds per pot: 17.3
  Mean number of dead slugs per pot: 0.3
  Mean number of plants present per pot: 9.3
[2]; [15]
  Mean number fecal pellets per pot: 120
  Mean number of damaged seeds per pot: 31.8
  Mean number of dead slugs per pot: 0.3
  Mean number of plants present per pot: 1.8
[2]; [16]
  Mean number fecal pellets per pot: 138
  Mean number of damaged seeds per pot: 32.0
  Mean number of dead slugs per pot: 0.3
  Mean number of plants present per pot: 2.0
[2]; [17]
  Mean number fecal pellets per pot: 158
  Mean number of damaged seeds per pot: 34.8
  Mean number of dead slugs per pot: 1.0
  Mean number of plants present per pot: 2.0
[2]; 8 ml formulated per kg seed
  number of utilizable plants after 14 days: 1.0
  percentage of damaged seeds after 14 days: 84%
[2]; [18]
  Mean number of damaged seeds per pot: 1.8
  Mean number of dead slugs per pot: 0
[2]; [19]
  Mean number fecal pellets per pot: 60
  Mean number of damaged seeds per pot: 13.0
  Mean number of dead slugs per pot: 0
  Mean number of plants present per pot: 1.5
[2]; [20]
  Mean number fecal pellets per pot: 106
  Mean number of damaged seeds per pot: 30.3
  Mean number of dead slugs per pot: 0
  Mean number of plants present per pot: 1.0
[2]; [21]
  Mean number fecal pellets per pot: 150
  Mean number of damaged seeds per pot: 31.5
  Mean number of dead slugs per pot: 0
  Mean number of plants present per pot: 1.5
[2]; [22]
  Mean number fecal pellets per pot: 158
  Mean number of damaged seeds per pot: 33.8
  Mean number of dead slugs per pot: 0
  Mean number of plants present per pot: 1.5
[2]
  differences in the number of damaged seeds: did not result in significant differences
  protection / slug controlling effect (conclusion): no slug controlling effect
